Test results from patent US20160158200A1, “Combinations of Hepatitis C Virus Inhibitors” (priority 2013, published 2016).

What was measured:
[1] = test system: HCV genotype 1a L31V variant with leucine 31 changed to valine in the NS5A protein; test: microbe, parasite or virus in culture; format: cell-based; conditions: genotype 1a L31V replicon; test compound titrated with compound N47 fixed at 200 nM versus singly
[2] = test system: HCV genotype 1a Y93H variant with tyrosine 93 changed to histidine in the NS5A protein; test: microbe, parasite or virus in culture; format: cell-based; conditions: genotype 1a Y93H replicon; test compound titrated with compound N47 fixed at 200 nM versus singly
Experimental: Combinations can be examined for synergistic activity using a variety of putative NS5A-targeting compounds and a variety of test compounds. […] The test compound can be chosen from compounds exemplified below, which were prepared by methods known in the art, or from others disclosed in the literature.
Similarly, BMS-790052 can be tested singly and in combination with a fixed amount of compound N47 in the HCV replicon cell based assay consisting of the genotype 1a Y93H variant with tyrosine 93 changed to histidine in the NS5A protein.

Compound	Fold-Synergistic G-1a (L31V) [1] [fold]	Fold-Synergistic G-1a (Y93H) [2] [fold]
COC(=O)N[C@H](C(=O)N1CCC[C@H]1c1ncc(-c2ccc3oc(-c4ccc5nc([C@@H]6CCCN6C(=O)[C@@H](NC(=O)OC)C(C)C)[nH]c5c4)nc3c2)[nH]1)C(C)C	>100	>100
COC(=O)N[C@H](C(=O)N1CCC[C@H]1c1nc2cc(-c3ccc4ccc(-c5ccc6nc([C@@H]7CCCN7C(=O)[C@@H](NC(=O)OC)C(C)C)[nH]c6c5)cc4c3)ccc2[nH]1)C(C)C	>10	>10
COC(=O)N[C@H](C(=O)N1[C@@H]2C[C@@H]2C[C@H]1c1nc2ccc3cc(C#CC#Cc4ccc5c(ccc6nc([C@@H]7C[C@H]8C[C@H]8N7C(=O)[C@@H](NC(=O)OC)C(C)C)[nH]c65)c4)ccc3c2[nH]1)C(C)C	>10	>10
COC(=O)N[C@H](C(=O)N1C[C@H](C)CC1c1nc(-c2ccc(-c3ccc(-c4cnc([C@@H]5C[C@@H](C)CN5C(=O)[C@@H](NC(=O)OC)C(C)C)[nH]4)cc3)cc2)c[nH]1)C(C)C (stereo partly shown)	>100	>100
COC(=O)N[C@H](C(=O)N1[C@H](c2nc(-c3ccc(-c4ccc(-c5c[nH]c([C@@H]6C[C@@H]7CCC[C@@H]7N6C(=O)[C@@H](NC(=O)OC)C(C)C)n5)cc4)cc3)c[nH]2)C[C@@H]2CCC[C@@H]21)C(C)C	>100	>100
COC(=O)N[C@H](C(=O)N1CCC[C@H]1c1nc2cc(C#Cc3ccc(-c4[nH]cnc4[C@@H]4CCCN4C(=O)[C@@H](NC(=O)OC)C(C)C)cc3)ccc2[nH]1)C(C)C	<10	>10
COC(=O)N[C@H](C(=O)N1[C@@H]2C[C@@H]2C[C@H]1c1ncc(-c2ccc(C#Cc3ccc(-c4cnc([C@@H]5C[C@H]6C[C@H]6N5C(=O)[C@@H](NC(=O)OC)C(C)C)[nH]4)cc3C)c(C)c2)[nH]1)C(C)C	<10	<10
COC(=O)N[C@H](C(=O)N1[C@@H]2C[C@@H]2C[C@H]1c1ncc(-c2ccc(-c3ccc(-c4cnc([C@@H]5C[C@H]6C[C@H]6N5C(=O)[C@@H](NC(=O)OC)C(C)C)[nH]4)cc3)cc2)[nH]1)C(C)C	>100	>100
O=C(Nc1ccc(/C=C/c2ccc(NC(=O)[C@@H]3CCCN3C(=O)Cc3cccnc3)nc2)cn1)[C@@H]1CCCN1C(=O)Cc1cccnc1	<10	<10
COC(=O)N[C@H](C(=O)N1CC[C@H](C)[C@H]1c1ncc(-c2ccc(-c3ccc(-c4cnc([C@@H]5[C@@H](C)CCN5C(=O)[C@@H](NC(=O)OC)C(C)C)[nH]4)cc3)cc2)[nH]1)C(C)C	>100	>100
O=C(Nc1ccc(-c2nnc(-c3ccc(NC(=O)[C@@H]4CCCN4C(=O)Cc4cccnc4)cc3)o2)cc1)[C@@H]1CCCN1C(=O)Cc1cccnc1	<10	<10
CC[C@H](NC(=O)OC)C(=O)N1[C@@H]2C[C@@H]2C[C@H]1c1ncc(-c2ccc(C34CCC(c5cnc([C@@H]6C[C@H]7C[C@H]7N6C(=O)[C@H](CC)NC(=O)OC)[nH]5)(CC3)CC4)cc2)[nH]1	>100	>100
CN(C)[C@@H](C(=O)N1CCC[C@H]1C(=O)Nc1ccc(C#Cc2ccc(NC(=O)[C@@H]3CCCN3C(=O)[C@@H](c3ccccc3)N(C)C)cc2)cc1)c1ccccc1	<10	<10
Cc1nc2cccc(-c3ncc(-c4ccc5nc([C@@H]6CCCN6C(=O)[C@@H](c6ccccc6)N(C)C)[nH]c5c4)o3)c2[nH]1	<10	<10
COC(=O)N[C@H](C(=O)N1[C@H](C)CC[C@H]1c1nc(-c2ccc(-c3ccc4cc(-c5c[nH]c([C@@H]6CC[C@@H](C)N6C(=O)[C@@H](NC(=O)OC)C(C)C)n5)ccc4c3)cc2)c[nH]1)C(C)C	>10	<10
CN(C)[C@@H](C(=O)N1CCC[C@H]1c1nc2ccc(-c3ccc4nc([C@@H]5CCCN5C(=O)[C@@H](c5ccccc5)N(C)C)[nH]c4c3)cc2[nH]1)c1ccccc1	<10	<10
O=C(Nc1ccc(/C=C/c2ccc(NC(=O)[C@@H]3CCCCN3C(=O)OCc3ccccc3)cc2)cc1)[C@@H]1CCCCN1C(=O)OCc1ccccc1	<10	<10
COC(=O)N[C@H](C(=O)N1[C@H](c2ncc(-c3ccc(-c4ccc(-c5cnc([C@@H]6C[C@H](C)[C@H](C)N6C(=O)[C@@H](NC(=O)OC)C(C)C)[nH]5)cc4)cc3)[nH]2)C[C@H](C)[C@@H]1C)C(C)C	>100	>100

Compound	Fold-Synergistic G-1a (L31V) [1] [fold]	Fold-Synergistic G-1a (Y93H) [2] [fold]
COC(=O)N[C@H](C(=O)N1[C@@H]2C[C@@H]2C[C@H]1c1nc2cc(Oc3cccc(-c4ccc5[nH]c([C@@H]6C[C@H]7C[C@H]7N6C(=O)[C@@H](NC(=O)OC)C(C)C)nc5c4)c3)ccc2[nH]1)C(C)C	>10	>10
COC(=O)N[C@H](C(=O)N1[C@@H]2C[C@@H]2C[C@H]1c1nc2ccc(-c3ccc4cc(-c5ccc6nc([C@@H]7C[C@H]8C[C@H]8N7C(=O)[C@@H](NC(=O)OC)C(C)C)[nH]c6c5)ccc4c3)cc2[nH]1)C(C)C	>10	>10
COC(=O)N[C@H](C(=O)N1[C@@H]2C[C@@H]2C[C@H]1c1nc(-c2ccn3nc(-c4ccc(-c5cnc([C@@H]6C[C@H]7C[C@H]7N6C(=O)[C@@H](NC(=O)OC)C(C)C)[nH]5)cc4)cc3c2)c[nH]1)C(C)C	>100	>100
O=C(c1nc(Cl)cc2ccccc12)N1CCC[C@H]1c1nc2ccc(C#Cc3ccc4nc([C@@H]5CCCN5C(=O)c5nc(Cl)cc6ccccc56)[nH]c4c3)cc2[nH]1	<10	<10
COC(=O)N[C@H](C(=O)N1[C@H](c2ncc(-c3ccc(-c4ccc(-c5cnc([C@@H]6C[C@@H](C)[C@H](C)N6C(=O)[C@@H](NC(=O)OC)C(C)C)[nH]5)cc4)cc3)[nH]2)C[C@@H](C)[C@@H]1C)C(C)C	>100	>100
CN(C)[C@@H](C(=O)Nc1cccc(-c2ncc(-c3ccc4nc([C@@H]5CCCN5C(=O)[C@@H](c5ccccc5)N(C)C)[nH]c4c3)o2)c1)c1ccccc1	<10	<10
COC(=O)N[C@H](C(=O)N1CCC[C@H]1c1nc2cc(-c3ccc4c(ccc5[nH]c([C@@H]6CCCN6C(=O)[C@@H](NC(=O)OC)C(C)C)nc54)c3)ccc2[nH]1)C(C)C	>10	>100
CN(C)[C@@H](C(=O)N1CCC[C@H]1c1ncc(-c2ccc(-c3ccc(-c4cnc([C@@H]5CCCN5C(=O)[C@@H](c5ccccc5)N(C)C)[nH]4)s3)s2)[nH]1)c1ccccc1	<10	<10
COC(=O)N[C@H](C(=O)N1[C@@H]2CC[C@@H]2C[C@H]1c1nc(-c2ccc(-c3ccc(-c4cnc([C@@H]5C[C@H]6CC[C@H]6N5C(=O)[C@@H](NC(=O)OC)C(C)C)[nH]4)cc3)cc2)c[nH]1)C(C)C	>100	>100
COC(=O)N[C@@H](C(=O)N1CCC[C@H]1c1nc2cc(-c3ccc(-c4ccc5c(ccc6[nH]c([C@@H]7CCCN7C(=O)[C@H](NC(=O)OC)c7ccccc7)nc65)c4)cc3)ccc2[nH]1)c1ccccc1	<10	<10
COC(=O)N[C@H](C(=O)N1CCOC[C@H]1c1nc(-c2ccc(-c3ccc4cc(-c5c[nH]c([C@@H]6COCCN6C(=O)[C@@H](NC(=O)OC)C(C)C)n5)ccc4c3)cc2)c[nH]1)C(C)C	>10	>10
COC(=O)N[C@H](C(=O)N1CCC[C@H]1c1ncc(-c2ccc(C#Cc3ccc4c(ccc5[nH]c([C@@H]6CCCN6C(=O)[C@@H](NC(=O)OC)C(C)C)nc54)c3)cc2)[nH]1)C(C)C	<10	>100
O=C(Cc1ccccc1)N1CCC[C@H]1c1nc2ccc(-c3cnc([C@@H]4CCCN4C(=O)Cc4ccccc4)o3)cc2[nH]1	<10	<10
COC(=O)N[C@H](C(=O)N1CCC[C@H]1c1nc2ccc(Oc3ccc(-c4ccc5nc([C@@H]6CCCN6C(=O)[C@@H](NC(=O)OC)C(C)C)[nH]c5c4)cc3)cc2[nH]1)C(C)C	<10	<10
COC(=O)N[C@@H](C(=O)N1CCC[C@H]1c1nc(-c2ccc(CCc3ccc(-c4c[nH]c([C@@H]5CCCN5C(=O)[C@H](NC(=O)OC)c5ccccc5)n4)cc3)cc2)c[nH]1)c1ccccc1	<10	<10
COC(=O)N[C@H](C(=O)N1CCC[C@H]1c1nc2cc(C#Cc3ccc4[nH]c([C@@H]5CCCN5C(=O)[C@@H](NC(=O)OC)C(C)C)nc4c3)ccc2[nH]1)C(C)C	<10	>10
O=C(OCc1ccccc1)N1C[C@H](O)C[C@H]1c1nc2cc(C#Cc3ccc4[nH]c([C@@H]5C[C@@H](O)CN5C(=O)OCc5ccccc5)nc4c3)ccc2[nH]1	<10	<10
